The record followed here is patent publication US9433622B2, “Pyrimidine compounds useful in the treatment of diseases mediated by IKKE and/or TBK1 mechanisms” (DOMAINEX LIMITED, priority 2013, dated 2016).

One experiment addresses TBK1 (Homo sapiens (Human), UniProt Q9UHD2). Description: Lanthascreen TR-FRET kinase inhibition assay, TBK1. Type of experiment: biochemical. To be noted: 20 μM ATP (apparent Km), 8 nM kinase, 2.5 h. The gist of the method: (§1)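 TR-FRET: terbium phosphospecific antibody detects phosphorylation of 400 nM fluorescein-IkBα peptide, 20 μM ATP, 20 °C, HEPES pH 7.5 with 3% DMSO. IKKε at 2 nM, 1 h reaction; TBK1 at 8 nM, 2.5 h reaction; started by kinase addition.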

A further experiment addresses IKKε (Homo sapiens (Human), UniProt Q14164). Description: Lanthascreen TR-FRET kinase inhibition assay, IKKε. Particulars: 20 μM ATP (apparent Km), 2 nM kinase, 1 h. Type of experiment: biochemical. In outline: as §1
In general terms: TR-FRET usually uses a lanthanide donor and a delayed reading to cut background.

The structures appear in SMILES notation.

The term IC50 denotes the concentration needed to halve the response being measured.

Sequence of TBK1 (Q9UHD2 whole entry): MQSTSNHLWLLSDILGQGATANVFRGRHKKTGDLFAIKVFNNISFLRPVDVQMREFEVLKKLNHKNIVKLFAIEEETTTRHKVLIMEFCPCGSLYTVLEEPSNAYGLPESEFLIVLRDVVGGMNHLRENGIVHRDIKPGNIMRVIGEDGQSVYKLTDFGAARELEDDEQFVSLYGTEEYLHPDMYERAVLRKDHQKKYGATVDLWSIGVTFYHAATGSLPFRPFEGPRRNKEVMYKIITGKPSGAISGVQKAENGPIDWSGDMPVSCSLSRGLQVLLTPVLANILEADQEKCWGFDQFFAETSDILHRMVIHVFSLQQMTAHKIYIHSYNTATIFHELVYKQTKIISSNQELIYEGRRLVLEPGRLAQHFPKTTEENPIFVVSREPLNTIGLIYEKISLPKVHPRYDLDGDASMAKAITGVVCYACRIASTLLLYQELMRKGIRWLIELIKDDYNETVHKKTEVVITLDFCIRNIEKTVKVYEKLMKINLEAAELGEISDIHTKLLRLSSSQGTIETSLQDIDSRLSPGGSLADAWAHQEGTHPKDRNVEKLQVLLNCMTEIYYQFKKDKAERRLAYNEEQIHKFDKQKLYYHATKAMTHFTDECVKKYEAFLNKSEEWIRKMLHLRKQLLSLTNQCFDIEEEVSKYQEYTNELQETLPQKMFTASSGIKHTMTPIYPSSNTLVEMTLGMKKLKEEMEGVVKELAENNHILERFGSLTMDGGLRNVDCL
Sequence of IKKε (Q14164 whole entry): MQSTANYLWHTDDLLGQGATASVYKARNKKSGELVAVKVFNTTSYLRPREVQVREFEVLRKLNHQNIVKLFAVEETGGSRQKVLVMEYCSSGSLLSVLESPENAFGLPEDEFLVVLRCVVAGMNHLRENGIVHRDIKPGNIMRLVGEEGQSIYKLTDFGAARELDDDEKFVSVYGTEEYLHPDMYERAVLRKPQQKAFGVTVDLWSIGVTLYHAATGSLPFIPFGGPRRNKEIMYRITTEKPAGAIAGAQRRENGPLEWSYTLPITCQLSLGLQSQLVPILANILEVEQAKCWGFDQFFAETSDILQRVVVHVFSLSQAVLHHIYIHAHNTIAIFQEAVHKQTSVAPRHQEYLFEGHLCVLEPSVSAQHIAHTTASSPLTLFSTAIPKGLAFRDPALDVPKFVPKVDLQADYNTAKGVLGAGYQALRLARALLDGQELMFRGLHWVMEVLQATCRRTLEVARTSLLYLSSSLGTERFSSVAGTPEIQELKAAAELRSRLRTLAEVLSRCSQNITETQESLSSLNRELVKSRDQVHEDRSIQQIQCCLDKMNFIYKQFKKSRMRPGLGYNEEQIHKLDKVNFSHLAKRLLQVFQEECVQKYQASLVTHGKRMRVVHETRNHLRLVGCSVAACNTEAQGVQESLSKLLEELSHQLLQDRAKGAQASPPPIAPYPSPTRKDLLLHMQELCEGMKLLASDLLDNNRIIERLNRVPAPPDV

Regarding `N#Cc1cc(-c2ccnc(Nc3ccc(NC(=O)CN4CCOCC4)nc3)n2)cnc1N1CC[C@@H](F)C1` [DMX-112, N-(5-{4-[5-Cyano-6-((R)-3-fluoro-pyrrolidin-1-yl)-pyridin-3-yl]-pyrimidin-2-ylamino}-pyridin-2-yl)-2-morpholin-4-yl-acetamide], the results for the IC50 at TBK1 and at IKKε were less than 30 nM and less than 15 nM, respectively.
On to `CC(=O)Nc1ccc(Nc2nccc(-c3cnc(N[C@@H]4CCOC4)c(C#N)c3)n2)cn1` [DMX-113, N-[5-(4-{5-Cyano-6-[(R)-(tetrahydro-furan-3-yl)amino]-pyridin-3-yl}-pyrimidin-2-ylamino)-pyridin-2-yl]-acetamide], for which the half-inhibitory concentration (IC50) at TBK1 and on IKKε was less than 1000 nM in each case.
Regarding `CN1CCC(Nc2ccc(Nc3nccc(-c4cnc(N[C@@H]5CCOC5)c(C#N)c4)n3)cn2)CC1` [DMX-114, 5-{2-[6-(1-Methyl-piperidin-4-ylamino)-pyridin-3-ylamino]-pyrimidin-4-yl}-2-[(R)-(tetrahydro-furan-3-yl)amino]-nicotinonitrile], the IC50 on TBK1 and on IKKε was less than 100 nM throughout.
In the case of `CN1CCC(NC(=O)c2cccc(Nc3nccc(-c4cnc(N[C@@H]5CCOC5)c(C#N)c4)n3)c2)CC1` [DMX-115, 3-(4-{5-Cyano-6-[(R)-(tetrahydro-furan-3-yl)amino]-pyridin-3-yl}-pyrimidin-2-ylamino)-N-(1-methyl-piperidin-4-yl)-benzamide], the IC50 at TBK1 and on IKKε was less than 1000 nM throughout.
As for `Cn1cc(Nc2nccc(-c3cnc(N[C@@H]4CCOC4)c(C#N)c3)n2)cn1` [DMX-116, 5-[2-(1-Methyl-1H-pyrazol-4-ylamino)-pyrimidin-4-yl]-2-[(R)-(tetrahydro-furan-3-yl)amino]-nicotinonitrile], the IC50 at TBK1 and at IKKε was less than 1000 nM throughout.
In the case of `N#Cc1cc(-c2ccnc(Nc3cccc(C(=O)NC4CCNCC4)c3)n2)cnc1N[C@@H]1CCOC1` [DMX-117, 3-(4-{5-Cyano-6-[(R)-(tetrahydro-furan-3-yl)amino]-pyridin-3-yl}-pyrimidin-2-ylamino)-N-piperidin-4-yl-benzamide], the IC50 on TBK1 and on IKKε was less than 1000 nM throughout.
With `COCCNc1ncc(-c2ccnc(Nc3ccc(NC4CCN(C)CC4)nc3)n2)cc1C#N` [DMX-118, 2-(2-Methoxy-ethylamino)-5-{2-[6-(1-methyl-piperidin-4-ylamino)-pyridin-3-ylamino]-pyrimidin-4-yl}-nicotinonitrile], the IC50 at TBK1 and at IKKε was less than 1000 nM in each case.
As to `CNc1ncc(-c2ccnc(Nc3ccc(NC4CCN(C)CC4)nc3)n2)cc1C#N` [DMX-119, 2-Methylamino-5-{2-[6-(1-methyl-piperidin-4-ylamino)-pyridin-3-ylamino]-pyrimidin-4-yl}-nicotinonitrile], the IC50 on TBK1 is less than 100 nM; at IKKε it was less than 1000 nM.
`CN1CCC(Nc2ccc(Nc3nccc(-c4cnc(NCCO)c(C#N)c4)n3)cn2)CC1` [DMX-120, 2-(2-Hydroxy-ethylamino)-5-{2-[6-(1-methyl-piperidin-4-ylamino)-pyridin-3-ylamino]-pyrimidin-4-yl}-nicotinonitrile]: the IC50 on TBK1 is less than 100 nM; at IKKε, less than 1000 nM.
Regarding `N#Cc1cc(-c2ccnc(Nc3ccc(CN4CCOCC4)nc3)n2)cnc1NC1CC1` [DMX-122, 2-Cyclopropylamino-5-[2-(6-morpholin-4-ylmethyl-pyridin-3-ylamino)-pyrimidin-4-yl]-nicotinonitrile], the concentration for half-maximal inhibition (IC50) was less than 100 nM at TBK1 and less than 1000 nM on IKKε.
Taken in the same sequence, the figures for `N#Cc1cc(-c2nc(Nc3ccc(CN4CCOCC4)nc3)ncc2F)cnc1NC1CC1` [DMX-123, 2-Cyclopropylamino-5-[5-fluoro-2-(6-morpholin-4-ylmethyl-pyridin-3-ylamino)-pyrimidin-4-yl]-nicotinonitrile] were less than 100 nM and less than 1000 nM.
Regarding `N#Cc1cc(-c2nc(Nc3ccnc(NC(=O)CN4CCOCC4)c3)ncc2F)cnc1NC1CC1` [DMX-124, N-{4-[4-(5-Cyano-6-cyclopropylamino-pyridin-3-yl)-5-fluoro-pyrimidin-2-ylamino]-pyridin-2-yl}-2-morpholin-4-yl-acetamide], the IC50 was less than 100 nM on TBK1 and less than 1000 nM at IKKε.
`COCCNc1cc(Nc2ncc(F)c(-c3cnc(NC4CC4)c(C#N)c3)n2)ccn1` [DMX-125, 2-Cyclopropylamino-5-{5-fluoro-2-[2-(2-methoxy-ethylamino)-pyridin-4-ylamino]-pyrimidin-4-yl}-nicotinonitrile]: the IC50 on TBK1 is less than 100 nM; at IKKε, less than 1000 nM.
Taken in the same sequence, the figures for `N#Cc1cc(-c2ccnc(Nc3ccc4c(c3)CNC4)n2)cnc1N1CC[C@H](F)C1` [DMX-126, 5-[2-(2,3-Dihydro-1H-isoindol-5-ylamino)-pyrimidin-4-yl]-2-((S)-3-fluoro-pyrrolidin-1-yl)-nicotinonitrile] were less than 15 nM and less than 15 nM.
Consider `COCCN1Cc2ccc(Nc3nccc(-c4cnc(N5CC[C@H](F)C5)c(C#N)c4)n3)cc2C1` [DMX-127, 2-((S)-3-Fluoro-pyrrolidin-1-yl)-5-{2-[2-(2-methoxy-ethyl)-2,3-dihydro-1H-isoindol-5-ylamino]-pyrimidin-4-yl}-nicotinonitrile], for which the IC50 at TBK1 and on IKKε was less than 15 nM each time.
With `Cc1nccn1CC(=O)Nc1ccc(Nc2nccc(-c3cnc(N4CC[C@H](F)C4)c(C#N)c3)n2)cn1` [DMX-128, N-(5-{4-[5-Cyano-6-((S)-3-fluoro-pyrrolidin-1-yl)-pyridin-3-yl]-pyrimidin-2-ylamino)-pyridin-2-yl)-2-(2-methyl-imidazol-1-yl)-acetamide], the IC50 on TBK1 and on IKKε was less than 30 nM throughout.
Turning to `CC(=O)NCC1CCCN1c1ncc(-c2ccnc(Nc3ccc(CN4CCOCC4)nc3)n2)cc1C#N` (centres unmarked) [DMX-130, N-(1-{3-Cyano-5-[2-(6-morpholin-4-ylmethyl-pyridin-3-ylamino)-pyrimidin-4-yl]-pyridin-2-yl}-pyrrolidin-2-ylmethyl)-acetamide], the IC50 on TBK1 and at IKKε was less than 1000 nM throughout.
For the compound `N#Cc1cc(-c2ccnc(Nc3ccc(CN4CCOCC4)nc3)n2)cnc1N1CCCC1CC(N)=O` (centres unmarked) [DMX-131, 2-(1-{3-Cyano-5-[2-(6-morpholin-4-ylmethyl-pyridin-3-ylamino)-pyrimidin-4-yl]-pyridin-2-yl}-pyrrolidin-2-yl)-acetamide], the IC50 at TBK1 and on IKKε was less than 30 nM in each case.
Take `N#Cc1cc(-c2ccnc(Nc3ccc(CN4CCOCC4)nc3)n2)cnc1N1CCNC(=O)CC1` [DMX-133, 5-[2-(6-Morpholin-4-yImethyl-pyridin-3-ylamino)-pyrimidin-4-yl]-2-(5-oxo-[1,4]diazepan-1-yl)-nicotinonitrile]: the IC50 at TBK1 and on IKKε was less than 1000 nM each time.
Turning to `CC(Nc1ncc(-c2ccnc(Nc3ccc(CN4CCOCC4)nc3)n2)cc1C#N)C(N)=O` (centres unmarked) [DMX-134, 2-{3-Cyano-5-[2-(6-morpholin-4-ylmethyl-pyridin-3-ylamino)-pyrimidin-4-yl]-pyridin-2-ylamino}-propionamide], the IC50 at TBK1 and at IKKε was less than 100 nM each time.
For `CC(C(N)=O)N(C)c1ncc(-c2ccnc(Nc3ccc(CN4CCOCC4)nc3)n2)cc1C#N` (centres unmarked) [DMX-135, 2-({3-Cyano-5-[2-(6-morpholin-4-ylmethyl-pyridin-3-ylamino)-pyrimidin-4-yl]-pyridin-2-yl}-methyl-amino)-propionamide], the IC50 at TBK1 and on IKKε was less than 100 nM each time.
For `CC(C)C(Nc1ncc(-c2ccnc(Nc3ccc(CN4CCOCC4)nc3)n2)cc1C#N)C(N)=O` (centres unmarked) [DMX-136, 2-{3-Cyano-5-[2-(6-morpholin-4-ylmethyl-pyridin-3-ylamino)-pyrimidin-4-yl]-pyridin-2-ylamino}-3-methyl-butyramide], the IC50 on TBK1 and at IKKε was less than 15 nM in each case.
On to `CN(CC1CCOC1)c1ncc(-c2ccnc(Nc3ccc(CN4CCOCC4)nc3)n2)cc1C#N` (centres unmarked) [DMX-137, 2-[Methyl-(tetrahydro-furan-3-ylmethyl)-amino]-5-[2-(6-morpholin-4-ylmethyl-pyridin-3-ylamino)-pyrimidin-4-yl]-nicotinonitrile], for which the IC50 on TBK1 and on IKKε was less than 1000 nM each time.
Consider `N#Cc1cc(-c2ccnc(Nc3ccc(CN4CCOCC4)nc3)n2)cnc1NCC1CCOC1` (centres unmarked) [DMX-138, 5-[2-(6-Morpholin-4-ylmethyl-pyridin-3-ylamino)-pyrimidin-4-yl]-2-[(tetrahydro-furan-3-ylmethyl)-amino]-nicotinonitrile], for which the IC50 on TBK1 was less than 100 nM; at IKKε, less than 1000 nM.
Take `N#Cc1cc(-c2ccnc(Nc3ccc(CN4CCOCC4)nc3)n2)cnc1NC1CCCC1` [DMX-139, 2-Cyclopentylamino-5-[2-(6-morpholin-4-ylmethyl-pyridin-3-ylamino)-pyrimidin-4-yl]-nicotinonitrile]: the IC50 on TBK1 and on IKKε was less than 100 nM throughout.
`COCCN(C)c1ncc(-c2ccnc(Nc3ccc(CN4CCOCC4)nc3)n2)cc1C#N` [DMX-140, 2-[(2-Methoxy-ethyl]-methyl-amino]-5-[2-(6-morpholin-4-ylmethyl-pyridin-3-ylamino)-pyrimidin-4-yl]-nicotinonitrile]: the 50% inhibitory concentration (IC50) at TBK1 and on IKKε was less than 1000 nM throughout.
Turning to `N#Cc1nc(-c2ccnc(Nc3ccc(NC(=O)CN4CCOCC4)nc3)n2)ccc1N1CC[C@H](O)C1` [DMX-141, N-(5-{4-[6-Cyano-5-((S)-3-hydroxy-pyrrolidin-1-yl)-pyridin-2-yl]-pyrimidin-2-ylamino}-pyridin-2-yl)-2-morpholin-4-yl-acetamide], the IC50 at TBK1 and at IKKε was less than 100 nM throughout.
For the compound `N#Cc1nc(-c2ccnc(Nc3ccc(NC(=O)CN4CCOCC4)nc3)n2)ccc1N1CC[C@H](F)C1` [DMX-142], the IC50 on TBK1 and at IKKε was less than 15 nM throughout.
